Experimental data: patent EP1070068B2, “GRANULATIMIDE DERIVATIVES FOR USE IN CANCER TREATMENT” (THE UNIVERSITY OF BRITISH COLUMBIA, priority 1998, dated 1999)
Like-named read-outs stand apart in the source and are kept apart here.

Key:
[1] = system: MCF-7 mp53 cells; assay: G2 checkpoint inhibition assay (TG-3 ELISA of mitotic cells after γ-irradiation, with nocodazole); assay type: cell-based; conditions: for IC50: Homo sapiens
Protocol: G2 Checkpoint Inhibitor Assay: The G2 checkpoint inhibitor assay described herein involves treating cells, e. g. cells associated with a hyperproliferative disorder, including cancer cells, with a DNA damaging agent under conditions whereby arrest of the cells at G2 will be induced. A sample to be tested for G2 checkpoint inhibition activity and an agent which arrests cells in mitosis are applied to the cells, following which it is determined whether the G2 checkpoint is overcome and the cells enter mitosis. Release of the cells from arrest at G2 or prevention of arrest at G2, such that the cells proceed to mitosis, is the indicator of G2 checkpoint inhibition activity.
MCF-7 mp53 cells (mutant for p53) were cultured as monolayers in DMEM supplemented with 10% fetal bovine serum, 2 mM L-glutamine, 50 units/ml penicillin, 50 µg/ml streptomycin, 1 mM sodium pyruvate, MEM non-essential amino acids, 1 µg/ml bovine insulin, 1 µg/ml hydrocortisone, 1 ng/ml human epidermal growth factor, and 1 ng/ml β-estradiol at 37°C in humidified 5% CO2. The cells were seeded at 10,000 cells per well of 96-well polystyrene tissue culture plates (Falcon) in 100 µl medium. The cells were allowed to grow for 24 hours and then were irradiated with 6.5 Gy using a ^60Co source (Gammacell 200™, Atomic Energy Commission of Canada) delivering γ-rays at a dose rate of 1.4 Gy/min.
Extracts from marine organisms at about 10µg/ml (from 1000-fold stocks in DMSO) and 100 ng/ml nocodazole (Sigma, from a 1000-fold stock in DMSO) were added 16 hours after irradiation and the cells were incubated for a further 8 hours.
After drug treatment, the cell culture medium was removed and the cells were lysed by adding 100 µl of ice-cold lysis buffer (1 mM EGTA pH 7.4, 0.2 mM PMSF) and pipeting up-and-down 10 times. The cell lysates were transferred to 96-well PolySorp™ plates (Nunc) and dried completely by blowing warm air at about 37°C with a hair dryer positioned about 3 feet above plates. […] This was removed and replaced with 100 µl antibody buffer containing 0.1-0.15 µg/ml TG-3 monoclonal antibody and horseradish peroxidase-labelled goat anti-mouse IgM (Southern Biotechnology Associates) at a dilution of 1/500.
After overnight incubation at 4°C, the antibody solution was removed and the wells were rinsed 3 times with 200 µl 10 mM Tris HCl pH 7.4, 0.02% Tween 20™.

[2] = system: MCF-7 mp53 cells; assay: as above; assay type: cell-based; conditions: concentration of 0.1-30 µM
[3] = system: p53-MCF-7 cells; conditions: cited from earlier work
[4] = system: p53- A549 human lung adenocarcinoma cells; conditions: cited from earlier work
[5] = system: MCF-7 mp53 cells
[6] = in vitro; conditions: human
[7] = biological target: T1, ILK1 (Homo sapiens, UniProt Q13418); assay: Protein kinase inhibition assay (γ-32P ATP, peptide substrate); assay type: biochemical; conditions: room temperature, 15 minutes
T1 sequence (Q13418 1-452): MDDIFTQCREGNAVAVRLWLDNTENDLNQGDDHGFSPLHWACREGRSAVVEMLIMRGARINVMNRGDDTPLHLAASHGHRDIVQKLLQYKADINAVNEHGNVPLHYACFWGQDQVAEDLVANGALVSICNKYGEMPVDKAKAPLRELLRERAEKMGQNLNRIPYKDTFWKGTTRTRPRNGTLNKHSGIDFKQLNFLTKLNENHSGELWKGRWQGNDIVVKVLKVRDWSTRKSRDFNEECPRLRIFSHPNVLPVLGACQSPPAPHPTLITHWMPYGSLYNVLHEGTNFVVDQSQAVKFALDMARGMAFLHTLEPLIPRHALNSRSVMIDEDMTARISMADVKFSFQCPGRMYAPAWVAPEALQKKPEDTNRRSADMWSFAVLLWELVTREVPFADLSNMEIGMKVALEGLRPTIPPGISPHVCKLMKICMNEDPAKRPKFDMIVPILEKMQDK
Protocol: (§1) The GSK3β peptide substrate used was […] (PO4H2)EDEE-amide. The ILK1 substrate is […]-amide.
(§2) 100% DMSO was used as a negative control.
(§3) Kinase reactions are performed at room temperature. The reaction mixture contains diluted test compound, the protein kinase, substrate and γ-^32P ATP. The mixture is incubated for 15 minutes, and the reaction mix spotted, and counted.

[8] = biological target: GSK3b (Homo sapiens, UniProt P49841); assay: as above; assay type: biochemical; conditions: room temperature, 15 minutes
Protocol: as §1, §2, §3

[9] = system: MCF-7 cells; assay: Cell survival, soluble tetrazolium salt assay with γ-irradiation, p53+ cells; assay type: cell-based; conditions: MCF-7 cells (Figure 1C)
[10] = biological target: CDK1 (Homo sapiens, UniProt P06493); assay: Protein kinase inhibition assay (γ-32P ATP); assay type: biochemical; conditions: room temperature, 15 minutes
Protocol: as §2, §3

[11] = Solubility in organic solvents; assay type: physicochemical
[12] = MCF7, light or radiation study, MCF-7 mp53 cells irradiated with 6.5 Gy, read-out: half-maximal G2 checkpoint inhibition (IC50)
[13] = MCF7, Table 2, read-out: IC50 G2 checkpoint

CDK1, sequence (P06493 whole entry, species assumed): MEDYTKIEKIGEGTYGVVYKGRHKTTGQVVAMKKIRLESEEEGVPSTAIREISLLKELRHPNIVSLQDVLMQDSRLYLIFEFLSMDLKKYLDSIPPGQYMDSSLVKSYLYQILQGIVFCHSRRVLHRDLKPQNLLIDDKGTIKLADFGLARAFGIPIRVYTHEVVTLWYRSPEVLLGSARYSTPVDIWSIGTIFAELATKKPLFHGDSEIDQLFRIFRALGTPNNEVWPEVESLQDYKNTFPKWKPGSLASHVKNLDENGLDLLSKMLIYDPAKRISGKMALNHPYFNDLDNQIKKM
CDK1, sequence (P14635 whole entry partner, species assumed): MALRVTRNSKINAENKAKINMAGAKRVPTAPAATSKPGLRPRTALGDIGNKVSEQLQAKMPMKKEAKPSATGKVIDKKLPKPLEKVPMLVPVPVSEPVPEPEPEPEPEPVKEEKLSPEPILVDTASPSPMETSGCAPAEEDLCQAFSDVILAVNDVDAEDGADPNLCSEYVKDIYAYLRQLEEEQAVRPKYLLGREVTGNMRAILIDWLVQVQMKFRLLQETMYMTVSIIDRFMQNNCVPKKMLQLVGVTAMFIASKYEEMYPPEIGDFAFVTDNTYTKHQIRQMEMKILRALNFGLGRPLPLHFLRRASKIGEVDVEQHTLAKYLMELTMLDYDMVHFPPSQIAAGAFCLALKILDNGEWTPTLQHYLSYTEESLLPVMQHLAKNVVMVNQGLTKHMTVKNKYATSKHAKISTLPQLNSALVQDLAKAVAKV
GSK3b, sequence (P49841 whole entry, species assumed): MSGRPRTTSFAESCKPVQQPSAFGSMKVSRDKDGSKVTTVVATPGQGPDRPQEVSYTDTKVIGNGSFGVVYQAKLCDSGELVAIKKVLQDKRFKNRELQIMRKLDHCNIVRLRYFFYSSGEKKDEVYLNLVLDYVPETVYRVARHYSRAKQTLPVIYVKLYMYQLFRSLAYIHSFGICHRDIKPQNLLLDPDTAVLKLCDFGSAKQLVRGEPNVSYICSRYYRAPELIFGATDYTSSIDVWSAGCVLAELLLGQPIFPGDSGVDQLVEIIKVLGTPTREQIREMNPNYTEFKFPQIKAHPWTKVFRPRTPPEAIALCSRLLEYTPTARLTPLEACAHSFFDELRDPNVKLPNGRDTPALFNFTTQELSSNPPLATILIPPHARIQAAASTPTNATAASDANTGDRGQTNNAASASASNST

IC50 [1, 12] [µM]	IC50 [1, 13] [µM]	IC50 [7] [µM]	IC50 [8] [µM]	IC50 [10] [µM]	SMILES	further results
					Cn1c(=O)c2c(ncn2C)n(C)c1=O [caffeine, reference compound]	IC50 ([1]; MCF7, comparison compound, read-out: IC50 for G2 checkpoint inhibition): 1000 µM; absorbance readings at 405 nm ([1]; positive control, 2 mM): about 1.0
					O=C1NC(=O)C(c2c[nH]c3ccccc23)=C1c1cnc[nH]1 [Didemnimide A]	G2 checkpoint inhibition activity [2]: no activity
					CC(=O)CCCCn1c(=O)c2c(ncn2C)n(C)c1=O [Pentoxifylline]	enhancement of cisplatin induced killing [3]: 30 fold; enhancement of radiation induced killing [4]: 5 fold
> 100	> 100	> 50	25	> 50	O=C1NC(=O)c2c1c1c3ccccc3[nH]c1c1nccn21 [compound 40]	
2	6	> 50	5	17	O=C1NC(=O)c2c1c1c3ccccc3[nH]c1n1ccnc21 [compound 60]	
	1.3	> 50	2	2	O=C1NC(=O)c2c1c1[nH]cnc1c1[nH]c3ccccc3c21 [Granulatimide]	IC50 ([1]; MCF7, Figure 2, read-out: G2 checkpoint inhibitor IC50): 1.3 µM; solubility ([11]; DMF or DMSO): soluble; solubility ([11]; most common organic solvents including ethanol and methanol): very insoluble
1	1	15	0.1	0.5	O=C1NC(=O)c2c1c1c3ccccc3[nH]c1c1cncn21 [compound 50]	

SMILES	IC50 [1, 12] [µM]	IC50 [1, 13] [µM]	IC50 [7] [µM]	IC50 [8] [µM]	IC50 [10] [µM]	further results
O=C1NC(=O)c2c1c1c3ccccc3[nH]c1n1cncc21 [Isogranulatimide]	1.8 ± 0.2	1.8	> 50	0.5		reduction of the IC50 for cytotoxicity when cells were irradiated [5]: 5 fold; synergy with γ-irradiation in killing p53- cells ([5]; 2, 4 or 6 Gy, 16 hours for isogranulatimide): acted synergistically; IC50 at 16 h [6]: 40 ± 4 µM; synergy with irradiation in killing p53+ cells [9]: does not kill p53+ cells synergistically
